Test results as given in PubChem BioAssay AID1963861 (Molecular Pharmacology Branch, DTP, NCI, 2024).

System: 885724-159-R-J1-PDC KRAS PDC multicell spheroid viability
Test: Anticancer human tumor 885724-159-R-J1-PDC patient-derived pancreatic adenocarcinoma cell line growth inhibition [KRAS2]
Conditions: for IC50: curve of first compound; for viability, T/C: stronger effect = lower value
Outline: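 Combination screen of spheroid viability in tumor-cell co-cultures with endothelial (HUVEC) and mesenchymal stem cell stroma. Each agent was tested in half-log dilutions, topping at clinical Cmax or at 10 microM without a known Cmax.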

[1] = second compound 0.1 µM, first compound 0.000316 µM
[2] = second compound 0.1 µM, first compound 0.001 µM
[3] = second compound 0.1 µM, first compound 0.00316 µM
[4] = second compound 0.1 µM, first compound 0.01 µM
[5] = second compound 0.1 µM, first compound 0.0316 µM
[6] = second compound 0.316 µM, first compound 0.000316 µM
[7] = second compound 0.316 µM, first compound 0.001 µM
[8] = second compound 0.316 µM, first compound 0.00316 µM
[9] = second compound 0.316 µM, first compound 0.01 µM
[10] = second compound 0.316 µM, first compound 0.0316 µM
[11] = second compound 1 µM, first compound 0.000316 µM
[12] = second compound 1 µM, first compound 0.001 µM
[13] = second compound 1 µM, first compound 0.00316 µM
[14] = second compound 1 µM, first compound 0.01 µM
[15] = second compound 1 µM, first compound 0.0316 µM
[16] = second compound 3.16 µM, first compound 0.000316 µM
[17] = second compound 3.16 µM, first compound 0.001 µM
[18] = second compound 3.16 µM, first compound 0.00316 µM
[19] = second compound 3.16 µM, first compound 0.01 µM
[20] = second compound 3.16 µM, first compound 0.0316 µM
[21] = second compound 10 µM, first compound 0.000316 µM
[22] = second compound 10 µM, first compound 0.001 µM
[23] = second compound 10 µM, first compound 0.00316 µM
[24] = second compound 10 µM, first compound 0.01 µM
[25] = second compound 10 µM, first compound 0.0316 µM
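Further: spheroids exposed to agents for 7 days before readout.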

Row | SMILES | IC50 (second compound 0.1 µM) [nM] | IC50 (second compound 0.316 µM) [nM] | IC50 (second compound 1 µM) [nM] | IC50 (second compound 3.16 µM) [nM] | IC50 (second compound 10 µM) [nM] | viability, T/C [1] [%] | viability, T/C [2] [%] | viability, T/C [3] [%] | viability, T/C [4] [%] | viability, T/C [5] [%] | viability, T/C [6] [%] | viability, T/C [7] [%] | viability, T/C [8] [%] | viability, T/C [9] [%] | viability, T/C [10] [%] | viability, T/C [11] [%] | viability, T/C [12] [%] | viability, T/C [13] [%] | viability, T/C [14] [%] | viability, T/C [15] [%] | also measured
1 | CC(=O)Nc1cccc(-n2c(=O)n(C3CC3)c(=O)c3c(Nc4ccc(I)cc4F)n(C)c(=O)c(C)c32)c1 + CC1OCC2(CCN(c3cnc(Sc4ccnc(N)c4Cl)c(N)n3)CC2)C1N | 0.715 | 0.532 | 0.328 | 0.213 | 0.106 | 62 | 44.4 | 33.3 | 24.1 | 17.9 | 57.4 | 41.3 | 28.8 | 23.2 | 15.9 | 51.6 | 34.8 | 28 | 18.4 | 15 | viability, T/C (second compound 0.1 µM, first compound 0.0001 µM): 81.5%; viability, T/C (second compound 0.316 µM, first compound 0.0001 µM): 73.6%; viability, T/C (second compound 1 µM, first compound 0.0001 µM): 64.7%; viability, T/C (second compound 3.16 µM, first compound 0.0001 µM): 57%; viability, T/C [16]: 47.6%; viability, T/C [17]: 30.3%; viability, T/C [18]: 24.3%; viability, T/C [19]: 17.5%; viability, T/C [20]: 14.3%; viability, T/C (second compound 10 µM, first compound 0.0001 µM): 50.6%; viability, T/C [21]: 38.6%; viability, T/C [22]: 26%; viability, T/C [23]: 19.6%; viability, T/C [24]: 13.8%; viability, T/C [25]: 11.7%
2 | CN(C)C/C=C/C(=O)Nc1cc2c(Nc3ccc(F)c(Cl)c3)ncnc2cc1O[C@H]1CCOC1 + CC1OCC2(CCN(c3cnc(Sc4ccnc(N)c4Cl)c(N)n3)CC2)C1N | > 100 | > 100 | > 100 | > 100 | > 100 | 112 | 105 | 105 | 89.4 | 71.8 | 103 | 102 | 90.7 | 81.3 | 78.6 | 150 | 144 | 136 | 121 | 105 | viability, T/C (second compound 0.1 µM, first compound 0.1 µM): 68%; viability, T/C (second compound 0.316 µM, first compound 0.1 µM): 71.5%; viability, T/C (second compound 1 µM, first compound 0.1 µM): 89.2%; viability, T/C [16]: 88.1%; viability, T/C [17]: 88%; viability, T/C [18]: 77.8%; viability, T/C [19]: 72.8%; viability, T/C [20]: 67.1%; viability, T/C (second compound 3.16 µM, first compound 0.1 µM): 62.8%; viability, T/C [21]: 147%; viability, T/C [22]: 149%; viability, T/C [23]: 140%; viability, T/C [24]: 116%; viability, T/C [25]: 104%; viability, T/C (second compound 10 µM, first compound 0.1 µM): 92%
